Experimental data reported in ChEMBL document CHEMBL3046379, “Differential activity against aphid settling of flavones obtained from Clytostoma callistegioides (Bignoniaceae)” (2013).

Experiments:
Format in all cases: functional
Myzus persicae [1] = assay: Anti-settling activity against Myzus persicae (green peach aphid) in compound treated bell pepper leaf assessed as preference index at 50 ug/cm'2 measured 24 hr
Rhopalosiphum padi [2] = assay: Anti-settling activity against Rhopalosiphum padi in compound treated barley [Hordeum vulgare L. (Poaceae)] foliage leaf assessed as preference index at 50 ug/cm'2 measured 24 hr
Rhopalosiphum padi [3] = assay: Anti-settling activity against Rhopalosiphum padi in compound treated barley [Hordeum vulgare L. (Poaceae)] foliage leaf assessed as aphids settled on leaf at 50 ug/cm'2 measured 24 hr (reference value: 55 +/- 4 to 90 +/- 3%)
Myzus persicae [4] = assay: Anti-settling activity against Myzus persicae (green peach aphid) in compound treated bell pepper leaf assessed as aphids settled on leaf at 50 ug/cm'2 measured 24 hr (reference value: 52 +/- 7 to 75 +/- 4%)

Compound | Ratio (Myzus persicae [1]) | Ratio (Rhopalosiphum padi [2]) | Activity (Rhopalosiphum padi [3]) [%] | Activity (Myzus persicae [4]) [%]
COc1c(O)cc(O)c2c(=O)cc(-c3ccc(O)cc3)oc12 [4'-HYDROXYWOGONIN] | 0 | 0.1 | 44 | 48
COc1ccc(-c2cc(=O)c3c(O)cc(O)cc3o2)cc1 [ACACETIN] | 0.1 | 0.3 | 34 | 44
COc1ccc(-c2cc(=O)c3c(O)cc(O)c(OC)c3o2)cc1 [GALANGUSTIN] | 0.4 | 0.8 | 10 | 29
